According to patent US7141251B2, “Pharmacologically active strong acid solutions” (Cytorex Biosciences, inc., priority 2001, dated 2006):

What was measured:
[1] = Example 27: patient with hypertension; details: 180/110 without medication
[2] = in water; cited from earlier work

With `CC(C)NCC(O)COc1ccc(CC(N)=O)cc1` (stereo not drawn) [Atenolol] the blood pressure [1] was 150/90.

For `O=C(O)C(=O)O` [Formulation H2C2O4, oxalic acid], the “Grade of Ionization (α)” value [2] is listed as “α = 1”.

For `O=C(O)CC(O)(CC(=O)O)C(=O)O` [Formulation H8C6O7, citric acid], the “Grade of Ionization (α)” value [2] is given as “α < 1”.
